Source: US20120184562A1, “1,6- AND 1,8-NAPHTHYRIDINES” (priority 2011, published 2012)

How the values were obtained:
Human DYRK1A = biological target: T1, Human DYRK1A (Homo sapiens, UniProt Q13627); test: DYRK1A Kinase TR-FRET (IMAP-Tb) Assay; type: biochemical; conditions: for inhibition at 10 µM: % inhibition at 10 μM test compound concentration, where IC50 not determined, read-out: % inhibition DYRK1A (printed in the Enzyme IC50 DYRK1A column); for IC50: TR-FRET (IMAP-Tb), ATP 70 μM, 37° C., 60 minutes, average of multiple runs, read-out: Enzyme IC50 (μM) DYRK1A
T1 construct: purchased Invitrogen PV3997
Excerpt: DYRK1A Kinase TR-FRET (IMAP-Tb) Assay
The kinase TR-FRET (IMAP-Tb) assay uses a fluorescence labeled substrate peptide in the kinase reaction. Upon phosphorylation by the kinase, phosphopeptide is produced, which will be detected by the binding solution provided in IMAP TR-FRET binding kit. After the completion of the kinase reaction, the reaction will be stopped by adding the binding solution containing terbium tracer. This tracer is immobilized on the surface of the IMAP beads, which also contain metal ions on the beads that bind to the phospho-groups of the products. Thus the phosphorylated product of the reaction can enter into close proximity to the tracer, producing resonance energy transfer. Due to the long lifetime of terbium (Tb) fluorescence the detection can be run in time resolved mode, which virtually eliminates fluorescence interference from assay components or compounds.
The TR-FRET signal measurement from this assay, given as an IC50 measurement, is a measure of a test compound's ability to interfere with the phosphorylation of the peptide substrate, that is it inhibits the phosphorylation of the substrate peptide by DYRK1A, and is thus a measure of the test compound's ability to inhibit the activity of DYRK1A.
• 1. Human DYRK1A: from Invitrogen. Part #PV3997 • 2. Substrate Peptide: […] • 3. IMAP TR-FRET IPP Explorer Kit: from Molecular Devices. Part #R8157 • 4. Kinase Assay Buffer (KAB): 10 mM HEPES pH 7.0, 50 mM NaCl, 5 mM MgCl2, 1 mM DTT, 1 mM NaVO4, 200 μg/mL BSA (0.02%) • 5. Assay Plate: Remp polypropylene clear 384-well microplate. […] Detection Plate: Costa black 384-well microplate. […] Transfer 1.5 μL of 20× compound solution to each well of an assay plate. • 2. Add to each well 22.5 μL of KAB Buffer. • 3. Add to each well 3 μL of the solution of DYRK1A and ATP. […] Add to each well 3 μL of the substrate peptide. The assay concentration is 1.0 μM • 5. Incubate the assay plates at 37° C. for 60 minutes. • 6. Add 18 μL of Detection Solution (1:800 diluted Progress bead stock, 1:400 diluted Tb stock, 80% Buffer A, and 20% Buffer B) into each well of detection plates. • 7. Transfer 6 μL of assay solution from the assay plate to the detection plate. • 8. Shake detection plates for 30 minutes. • 9. Read plates in Envision with wavelength set at excitation 340 nm for Tb, emission 490 nm, and […].

Human DYRK1B = biological target: T2, Human DYRK1B (Homo sapiens, UniProt Q9Y463); test: DYRK1B Kinase TR-FRET (IMAP-Tb) Assay; type: biochemical; conditions: for IC50: TR-FRET (IMAP-Tb), ATP 70 μM, 37° C., 60 minutes, average of multiple runs, read-out: Enzyme IC50 (μM) DYRK1B; for inhibition at 10 µM: % inhibition at 10 μM test compound concentration, where IC50 not determined
T2 construct: purchased Invitrogen PR8350B (former PV4649)
T2 sequence (Q9Y463 whole entry): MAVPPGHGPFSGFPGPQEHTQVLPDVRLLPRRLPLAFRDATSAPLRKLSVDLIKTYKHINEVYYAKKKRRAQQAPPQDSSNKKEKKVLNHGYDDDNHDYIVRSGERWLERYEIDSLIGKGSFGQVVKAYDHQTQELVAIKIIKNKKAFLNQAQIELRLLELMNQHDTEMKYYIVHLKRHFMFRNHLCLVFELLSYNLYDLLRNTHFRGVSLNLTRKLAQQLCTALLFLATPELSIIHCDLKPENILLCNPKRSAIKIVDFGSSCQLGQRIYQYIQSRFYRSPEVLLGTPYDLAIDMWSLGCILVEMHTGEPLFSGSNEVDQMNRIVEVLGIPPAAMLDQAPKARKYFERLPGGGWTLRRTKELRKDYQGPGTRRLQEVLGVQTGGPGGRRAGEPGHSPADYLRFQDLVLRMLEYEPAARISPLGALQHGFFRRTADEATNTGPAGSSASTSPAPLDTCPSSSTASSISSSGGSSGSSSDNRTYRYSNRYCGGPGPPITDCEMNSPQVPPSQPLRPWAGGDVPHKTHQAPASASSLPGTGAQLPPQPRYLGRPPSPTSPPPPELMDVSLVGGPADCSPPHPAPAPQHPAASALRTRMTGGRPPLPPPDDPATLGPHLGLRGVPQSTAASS
Excerpt: DYRK1B Kinase TR-FRET (IMAP-Tb) Assay The kinase TR-FRET (IMAP-Tb) assay uses a fluorescence labeled substrate peptide in the kinase reaction. Upon phosphorylation by the kinase, phosphopeptide is produced, which will be detected by the binding solution provided in IMAP TR-FRET binding kit. After the completion of the kinase reaction, the reaction will be stopped by adding the binding solution containing terbium tracer. This tracer is immobilized on the surface of the IMAP beads, which also contain metal ions on the beads that bind to the phospho-groups of the products. Thus the phosphorylated product of the reaction can enter into close proximity to the tracer, producing resonance energy transfer. Due to the long lifetime of terbium (Tb) fluorescence the detection can be run in time resolved mode, which virtually eliminates fluorescence interference from assay components or compounds. The TR-FRET signal measurement from this assay, given as an IC50 measurement, is a measure of a test compound's ability to interfere with the phosphorylation of the peptide substrate, that is it inhibits the phosphorylation of the substrate peptide by DYRK1B, and is thus a measure of the test compound's ability to inhibit the activity of DYRK1B. […] Human DYRK1B: from Invitrogen. Part #PR8350B (former PV4649) • 2. Substrate Peptide: in-house synthesized: RRRFRPASPLRGPPK • 3. IMAP TR-FRET IPP Explorer Kit: from Molecular Devices. Part #R8157 • 4. Kinase Assay Buffer (KAB): 10 mM HEPES pH 7.0, 50 mM NaCl, 5 mM MgCl2, 1 mM DTT, 1 mM NaVO4, 200 μg/mL BSA (0.02%) • 5. Assay Plate: Remp polypropylene clear 384-well microplate. Cat#23490-102 • 6. Detection Plate: Costa black 384-well microplate. Cat #3710 Assay Procedure: This assay was performed as follows: • 1. Transfer 1.5 μL of 20× compound solution to each well of an assay plate. • 2. Add to each well 22.5 μL of KAB Buffer. • 3. Add to each well 3 μL of the solution of DYRK1B and ATP. […] Add to each well 3 μL of the substrate peptide. The assay concentration is 1.0 μM • 5. Incubate the assay plates at 37° C. for 60 minutes. • 6. Add 18 μL of Detection Solution (1:800 diluted Progress bead stock, 1:400 diluted Tb stock, 80% Buffer A, and 20% Buffer B) into each well of detection plates. • 7. Transfer 6 μL of assay solution from the assay plate to the detection plate. • 8. Shake detection plates for 30 minutes. • 9. Read plates in Envision with wavelength set at excitation 340 nm for Tb, emission 490 nm, and […] 520 nm. • 10. Calculation: TR-FRET Signal=(Reading at […]/Reading at 490 nM)×2000000

Row | Structure (SMILES) | inhibition at 10 µM (Human DYRK1A) [%] | IC50 (Human DYRK1B) [µM] | inhibition at 10 µM (Human DYRK1B) [%] | IC50 (Human DYRK1A) [µM]
1 | COC(=O)c1ccc(C)c(NC(=O)c2cc3cnc(OC)cc3[nH]c2=O)c1 [Example 28, 3-[(7-Methoxy-2-oxo-1,2-dihydro-[1,6]naphthyridine-3-carbonyl)-amino]-4-methyl-benzoic acid methyl ester] | 24 | > 10 | – | –
2 | COc1cc2[nH]c(=O)c(C(=O)Nc3cc(C(=O)NCc4ccccc4)ccc3Cl)cc2cn1 [Example 32, 7-Methoxy-2-oxo-1,2-dihydro-[1,6]naphthyridine-3-carboxylic acid (5-benzylcarbamoyl-2-chloro-phenyl)-amide] | 23 | – | 19 | –
3 | COc1cc2[nH]c(=O)c(C(=O)Nc3cc(C(=O)NCc4ccccc4Cl)ccc3C)cc2cn1 [Example 34, 7-Methoxy-2-oxo-1,2-dihydro-[1,6]naphthyridine-3-carboxylic acid [5-(2-chloro-benzylcarbamoyl)-2-methyl-phenyl]-amide] | 45 | – | 28 | –
4 | COc1cc2[nH]c(=O)c(C(=O)Nc3cc(C(=O)NCc4cccc(Cl)c4)ccc3C)cc2cn1 [Example 35, 7-Methoxy-2-oxo-1,2-dihydro-[1,6]naphthyridine-3-carboxylic acid [5-(3-chloro-benzylcarbamoyl)-2-methyl-phenyl]-amide] | 45 | – | 35 | –
5 | COc1cc2[nH]c(=O)c(C(=O)Nc3cc(C(=O)NCc4ccc(Cl)cc4)ccc3C)cc2cn1 [Example 36, 7-Methoxy-2-oxo-1,2-dihydro-[1,6]naphthyridine-3-carboxylic acid [5-(4-chloro-benzylcarbamoyl)-2-methyl-phenyl]-amide] | – | > 10 | – | > 10
6 | COc1cc2[nH]c(=O)c(C(=O)Nc3cc(C(=O)NCc4ccccc4Cl)ccc3Cl)cc2cn1 [Example 39, 7-Methoxy-2-oxo-1,2-dihydro-[1,6]naphthyridine-3-carboxylic acid [2-chloro-5-(2-chloro-benzylcarbamoyl)-phenyl]-amide] | – | 7.22 | – | 0.63
7 | COc1cc2[nH]c(=O)c(C(=O)Nc3cc(C(=O)NCc4cccc(Cl)c4)ccc3Cl)cc2cn1 [Example 40, 7-Methoxy-2-oxo-1,2-dihydro-[1,6]naphthyridine-3-carboxylic acid [2-chloro-5-(3-chloro-benzylcarbamoyl)-phenyl]-amide] | – | – | – | 0.051
8 | COc1cc2[nH]c(=O)c(C(=O)Nc3cc(C(=O)NCc4ccc(Cl)cc4)ccc3Cl)cc2cn1 [Example 41, 7-Methoxy-2-oxo-1,2-dihydro-[1,6]naphthyridine-3-carboxylic acid [2-chloro-5-(4-chloro-benzylcarbamoyl)-phenyl]-amide] | – | > 10 | – | > 10
9 | COc1cc2[nH]c(=O)c(C(=O)Nc3cc(C(=O)NCc4cccs4)ccc3Cl)cc2cn1 [Example 42, 7-Methoxy-2-oxo-1,2-dihydro-[1,6]naphthyridine-3-carboxylic acid {2-chloro-5-[(thiophen-2-ylmethyl)-carbamoyl]-phenyl}-amide] | 27 | – | 41 | –
10 | COC(=O)c1ccc(C)c(NC(=O)c2cc3cnc(N4CCN(C)CC4)cc3[nH]c2=O)c1 [Example 74, 4-Methyl-3-{[7-(4-methyl-piperazin-1-yl)-2-oxo-1,2-dihydro-[1,6]naphthyridine-3-carbonyl]-amino}-benzoic acid methyl ester] | – | 3.55 | – | 0.96
11 | COC(=O)c1ccc(C)c(NC(=O)c2cc3ccc(N4CCN(C)CC4)nc3[nH]c2=O)c1 [Example 87, 4-Methyl-3-{[7-(4-methyl-piperazin-1-yl)-2-oxo-1,2-dihydro-[1,8]naphthyridine-3-carbonyl]-amino}-benzoic acid methyl ester] | – | 1.31 | – | 0.915
12 | COC(=O)c1ccc(C)c(NC(=O)c2cc3ccc(OC)nc3[nH]c2=O)c1 [Example 89, 3-[(7-Methoxy-2-oxo-1,2-dihydro-[1,8]naphthyridine-3-carbonyl)-amino]-4-methyl-benzoic acid methyl ester] | – | – | 47 | 0.125
13 | COc1ccc2cc(C(=O)Nc3cc(C(=O)NCc4ccccc4)ccc3Cl)c(=O)[nH]c2n1 [Example 94, N-(5-(Benzylcarbamoyl)-2-chlorophenyl)-7-methoxy-2-oxo-1,2-dihydro-1,8-naphthyridine-3-carboxamide] | – | 0.079 | – | 0.05
14 | COc1ccc2cc(C(=O)Nc3cc(C(=O)NCc4ccccc4)ccc3C)c(=O)[nH]c2n1 [Example 98, N-(5-(Benzylcarbamoyl)-2-methylphenyl)-7-methoxy-2-oxo-1,2-dihydro-1,8-naphthyridine-3-carboxamide] | – | 0.69 | – | 0.79
15 | COc1ccc2cc(C(=O)Nc3cc(C(=O)NC(CCN)c4ccccc4)ccc3C)c(=O)[nH]c2n1 (centres unmarked) [Example 100, N-(5-(3-Amino-1-phenylpropylcarbamoyl)-2-methylphenyl)-7-methoxy-2-oxo-1,2-dihydro-1,8-naphthyridine-3-carboxamide] | – | 0.0158 | – | 0.0162
